# Laboratory results taken from US11041181B2, “Promoter and method for producing purine nucleotide using the same” (CJ CHEILJEDANG CORPORATION, priority 2019, dated 2021).
# Assays:
# [1] = test system: CJI2332; format: cell-based, Corynebacterium stationis
# Procedure: (§1) To prepare an IMP-producing strain derived from the ATCC6872 strain, the culture of ATCC6872 was suspended in a phosphate buffer (pH 7.0) or citrate buffer (pH 5.5) at a density of 10^7 cells/mL to 10^8 cells/mL and treated with UV at room temperature or 32° C. for 20 min to 40 min to induce a mutation. The strain was washed with a 0.85% saline solution twice and spread, after dilution, on a minimal medium containing 1.7% agar which was supplemented with a resistance-providing material at an appropriate concentration, and thereby colonies were obtained. Each colony was cultured in a nutrient medium and then cultured in a seed culture medium for 24 hours. […] To prepare a strain producing IMP at high concentration, adenine-auxotroph, guanine-leaky type, lysozyme sensitivity, 3,4-dehydroproline resistance, streptomycin resistance, sulfaguanidine resistance, norvaline resistance, and trimethoprim resistance were provided by performing the corresponding procedures in a sequential manner. As a result, the CJI2332 strain provided with resistance to the above materials and having excellent IMP productivity was finally selected.
# (§2) Minimal medium: 2% glucose, 0.3% sodium sulfate, 0.1% monopotassium phosphate, 0.3% dipotassium phosphate, 0.3% magnesium sulfate, 10 mg/L calcium chloride, 10 mg/L iron sulfate, 1 mg/L zinc sulfate, 3.6 mg/L manganese chloride, 20 mg/L L-cysteine, 10 mg/L calcium pantothenate, 5 mg/L thiamine hydrochloride, 30 μg/L biotin, 20 mg/L adenine, 20 mg/L guanine, adjusted to pH 7.3.
# [2] = test system: ATCC6872; experiment: Resistance/sensitivity characteristics of strain on minimal medium with resistance-providing material; format: cell-based, Corynebacterium stationis
# Procedure: as §1, §2
Compound,resistance [1],resistance [2],further results
COc1cc(Cc2cnc(N)nc2N)cc(OC)c1OC [Trimethoprim],100 µg/mL,20 µg/mL,–
[H]/N=C(/N)N[C@H]1[C@H](O)[C@@H](O)[C@H](O[C@@H]2O[C@@H](C)[C@](O)(C=O)[C@H]2O[C@@H]2O[C@@H](CO)[C@H](O)[C@@H](O)[C@@H]2NC)[C@@H](N/C(N)=N\[H])[C@@H]1O [Streptomycin],"2,000 μg/mL",500 µg/mL,–
[H]/N=C(/N)NS(=O)(=O)c1ccc(N)cc1 [Sulfaguanidine],200 µg/mL,50 µg/mL,–
"O=C(O)C1C=CCN1 (stereo not drawn) [3,4-Dehydroproline]","3,500 μg/mL","1,000 μg/mL",–
Lysozyme,–,–,Lysozyme sensitivity [1]: 8 µg/mL; Lysozyme sensitivity [2]: 80 µg/mL
CCC[C@H](N)C(=O)O [Norvaline],–,–,Norvaline resistance [1]: 2 mg/mL; Norvaline resistance [2]: 0.2 mg/mL
